The source of these data is patent publication US10717731B2, “Nitrogen-containing aromatic heterocyclic compound” (MITSUBISHI TANABE PHARMA CORPORATION, priority 2015, dated 2020).

SMILES strings stand for the structures.

The test has as its target T1, human CYP11B2 (Homo sapiens, UniProt P19099).
T1 construct: expressed in transfected cells; mitochondrial fraction
T1 sequence (P19099 25-503): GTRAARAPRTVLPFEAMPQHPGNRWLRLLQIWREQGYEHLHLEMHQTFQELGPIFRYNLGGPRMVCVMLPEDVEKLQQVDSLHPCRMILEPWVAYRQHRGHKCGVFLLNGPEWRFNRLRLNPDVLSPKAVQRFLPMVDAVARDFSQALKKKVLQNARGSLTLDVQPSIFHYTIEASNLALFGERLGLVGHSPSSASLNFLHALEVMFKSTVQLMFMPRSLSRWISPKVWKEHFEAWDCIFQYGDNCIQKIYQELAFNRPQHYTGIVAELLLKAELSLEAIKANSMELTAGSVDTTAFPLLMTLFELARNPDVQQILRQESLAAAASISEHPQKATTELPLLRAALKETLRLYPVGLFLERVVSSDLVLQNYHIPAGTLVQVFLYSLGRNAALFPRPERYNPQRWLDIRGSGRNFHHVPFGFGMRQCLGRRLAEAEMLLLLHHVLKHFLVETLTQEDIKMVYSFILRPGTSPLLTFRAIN
In words: Inhibitory effect on hCYP11B2: aldosterone production in mitochondrial fraction of V79 cells stably expressing human CYP11B2, HTRF. The format is biochemical. The note with it: 0.5 μmol/L deoxycorticosterone, 150 μmol/L NADPH, 1.5-2 hours at room temperature. On the procedure: Experimental Example 1 (Inhibitory Effect on hCYP11B2)
The pcDNA3.1-human CYP11B2 plasmid was transfected into a Chinese hamster lung fibroblast V79 cell line to produce a cell line stably expressing human CYP11B2 gene.
The cells were cultured and grown in the Dulbecco's modified Eagle's/Ham's medium supplemented with 10% fetal bovine serum and 1% G418 disulfate solution under the environment of 37° C., 95% air, and 5% CO2, and the grown cells were harvested.
Then, the cells were fractionated to obtain mitochondria by reference to a method described in Chabre et al. JCE & M 85 (11) 4060-68, 2000. In particular, the cells suspended in a 5 mmol/L Tris-HCl buffer (pH 7.4) containing 250 mmol/L sucrose were homogenized in a Teflon (Registered Trademark) Potter Elvehjem homogenizer, and then the suspension was centrifuged (800×g, 15 min.). The supernatant was separated and again centrifuged (10000×g, 15 min.) to obtain a pellet (mitochondrial fraction).
The mitochondrial fraction diluted with a buffer containing 10 mmol/L KH2PO4, 10 mmol/L Tris, 20 mmol/L KCl, 25 mmol/L sucrose, 5 mmol/L MgCl2, and 0.05% bovine serum albumin was dispensed to a 96-well plate. 0.5 μmol/L Deoxycorticosterone, 150 μmol/L NADPH and a compound of each concentration were added to each well, and incubated for 1.5-2 hours at room temperature to produce aldosterone. An amount of the produced aldosterone in the incubated solution was determined by using HTRF (Homogeneous Time Resolved Fluorescence) method.
IC50 (nmol/L) was calculated by analyzing the aldosterone production inhibition rate (%) of each concentration of compounds by non-linear regression to a logistic curve.
Background: In TR-FRET formats the signal depends on donor and acceptor labels being close together.
For `O=C(CN1CCN(c2cncc(-c3ccc(F)cc3)n2)CC1)N[C@H]1CC[C@@H](N2CCOCC2)CC1` [Example 32], the midpoint of inhibition, the IC50, lay at 9.6 nM.
`O=C1CN([C@H]2CC[C@@H](NC(=O)CN3CCN(c4cncc(-c5ccc(F)cc5)n4)CC3)CC2)CCN1` [Example 33] displayed an IC50 of 3.9 nM.
For `O=C(CN1CCN(c2cncc(-c3ccc(F)cc3)n2)CC1)NC1CCN(C2CCOCC2)CC1` [Example 34] the value was 7 nM; for `CS(=O)(=O)CCN1CCC(NC(=O)CN2CCN(c3cncc(-c4ccc(F)cc4)n3)CC2)CC1` [Example 35], 8.6 nM.
Next, `O=C(CN1CCN(c2cncc(-c3ccc(F)cc3)n2)CC1)NC1CCN(c2ncccn2)CC1` [Example 36]: 4.8 nM; `CC(=O)N[C@H]1CC[C@@H](NC(=O)CN2CCN(c3cncc(-c4ccc(F)cc4)n3)CC2)CC1` [Example 37]: 8.4 nM.
Next, `CN(C)[C@H]1CC[C@@H](NC(=O)CN2CCN(c3cncc(-c4ccc(Cl)cc4)n3)CC2)CC1` [Example 38]: 8.7 nM; `CC(C)[C@@H](CO)NC(=O)CN1CCN(c2cncc(-c3ccc(Cl)cc3)n2)CC1` [Example 39]: 4.3 nM.
As to `O=C(CN1CCN(c2cncc(-c3ccc(Cl)cc3)n2)CC1)NN1CCCC1` [Example 40], the concentration for half-maximal inhibition (IC50) was 4 nM.
Next, `O=C(CN1CCN(c2cncc(-c3ccc(Cl)cc3)n2)CC1)NC1CCS(=O)(=O)CC1` [Example 41]: 9.6 nM.
Next, `CC(C)[C@@H](CO)NC(=O)CN1CCN(c2cncc(-c3ccc(C(F)(F)F)cc3)n2)C[C@H]1C` [Example 42]: 40 nM.
Next, `C[C@@H]1CN(c2cncc(-c3ccc(C(F)(F)F)cc3)n2)CCN1CC(=O)N[C@H]1CC[C@](C)(O)CC1` [Example 43]: 41 nM; `C[C@@H]1CN(c2cncc(-c3ccc(C(F)(F)F)cc3)n2)CCN1CC(=O)N[C@@H](C)C(C)(C)O` [Example 44]: 56 nM; `C[C@@H]1CN(c2cncc(-c3ccc(C(F)(F)F)cc3)n2)CCN1CC(=O)NCC(C)(C)O` [Example 45]: 20 nM.
`C[C@@H]1CN(c2cncc(-c3ccc(C(F)(F)F)cc3)n2)CCN1CC(=O)N[C@H]1CCC[C@H]1O` [Example 46]: half-maximal inhibition (IC50) required 26 nM.
`Cc1ccccc1-c1cncc(N2CCN(CC(=O)NC3CCN(CCS(C)(=O)=O)CC3)CC2)n1` [Example 47] showed an IC50 of 22 nM.
`Cc1ccccc1-c1cncc(N2CCN(CC(=O)N[C@H]3CN4CCC3CC4)CC2)n1` [Example 48] came in with an IC50 of 14 nM.
Next, `CC(C)NC(=O)CN1CCN(c2cncc(-c3ccc4c(cnn4C)c3)n2)CC1` [Example 50]: 48 nM.
`CC(C)NC(=O)CN1CCN(c2cncc(-c3ccc(C(F)(F)F)cc3)n2)C[C@H]1C` [Example 51] came in with an IC50 of 17 nM.
Compound `CC1CCC(c2cncc(N3CCN(CC(=O)NC(C)C)CC3)n2)CC1` (stereo not drawn) [Example 52] returned a half-maximal inhibitory concentration (IC50) of 18 nM.
Next, `CC(C)NC(=O)CN1CCN(c2cncc(-c3ccc(C#N)nc3)n2)CC1` [Example 53]: 25 nM; `Cn1ncc2ccc(-c3cncc(N4CCN(CC(=O)NN5CCCC5)CC4)n3)cc21` [Example 54]: 16 nM.
Next, `CC(C)NC(=O)CN1CCN(c2cncc(-c3ccc4c(c3)CCO4)n2)CC1` [Example 55]: 2.2 nM; `CC(C)NC(=O)CN1CCN(c2cncc(-c3ccc4cn[nH]c4c3)n2)CC1` [Example 56]: 38 nM.
`Cc1ccccc1-c1cnnc(N2CCN(CC(=O)N[C@H]3CC[C@H](N4CCOCC4)CC3)CC2)c1` [Example 57]: half-maximal inhibition (IC50) required 16 nM.
Next, `Cc1ccc(-c2cnnc(N3CCN(CC(=O)N[C@@H]4CCOC[C@@H]4O)CC3)c2)cc1` [Example 58]: 20 nM.
Take `CNC(=O)CN1CCC(NC(=O)CN2CCN(c3cc(-c4ccc(C)cc4)cnn3)CC2)CC1` [Example 59]: the half-maximal inhibitory concentration (IC50) was determined as 23 nM.
For `Cc1ccc(-c2cnnc(N3CCN(CC(=O)NC[C@H]4CN(C)CCO4)CC3)c2)cc1` [Example 60] the value was 18 nM; for `Cc1ccccc1-c1cnnc(N2CCN(CC(=O)Nc3cccnc3)CC2)c1` [Example 61], 2.5 nM; for `CS(=O)(=O)N1CCC(CNC(=O)CN2CCN(c3cc(-c4ccc(F)cc4)cnn3)CC2)CC1` [Example 62], 11 nM.
`C[C@H](O)CNC(=O)CN1CCN(c2cc(-c3ccc(F)cc3)cnn2)CC1` [Example 63]: the 50% inhibitory concentration (IC50) stood at 8.8 nM.
In turn, `CC(C)(C)OC(=O)N1CCN(CCNC(=O)CN2CCN(c3cc(-c4ccc(F)cc4)cnn3)CC2)CC1` [Example 64] displayed an IC50 of 6.6 nM.
For `COC1CCN(NC(=O)CN2CCN(c3cc(-c4ccc(Cl)cc4)cnn3)CC2)CC1` [Example 65] the value was 9.1 nM.
For `CNC(=O)COC1CCC(NC(=O)CN2CCN(c3cc(-c4ccc(F)cc4)cnn3)CC2)CC1` (stereo not drawn) [Example 66] the value was 9.6 nM.
For `CN(C)[C@H]1CC[C@@H](NC(=O)CN2CCN(c3cc(-c4c(F)cccc4F)cnn3)CC2)CC1` [Example 67] the value was 41 nM; for `CNC(=O)COC1CCC(NC(=O)CN2CCN(c3cc(-c4ccc(Cl)cc4)cnn3)CC2)CC1` (stereo not drawn) [Example 68], 8.3 nM; for `CC(=O)N[C@H]1CC[C@@H](NC(=O)CN2CCN(c3cc(-c4ccc(Cl)cc4)cnn3)CC2)CC1` [Example 69], 12 nM.
Compound `O=C(CN1CCN(c2cc(-c3ccc(Cl)cc3)cnn2)CC1)NC1CCS(=O)(=O)CC1` [Example 70] showed a half-inhibitory concentration (IC50) of 6 nM.
Turning to `CS(=O)(=O)CCN1CCC(NC(=O)CN2CCN(c3cc(-c4ccc(F)cc4)cnn3)CC2)CC1` [Example 71], 16 nM corresponded to half-maximal inhibition (IC50).
For `O=C(CN1CCN(c2cc(-c3ccc(F)cc3)cnn2)CC1)NC1CCC(N2CCOCC2)CC1` (stereo not drawn) [Example 72], the IC50 amounted to 11 nM.
For `CNC(=O)CN1CCC(NC(=O)CN2CCN(c3cc(-c4ccc(F)cc4)cnn3)CC2)CC1` [Example 73] the value was 18 nM; for `O=C(CN1CCN(c2cc(-c3ccc(F)cc3)cnn2)CC1)NCCN1CCS(=O)(=O)CC1` [Example 74], 19 nM; for `COc1ccccc1-c1cnnc(N2CCN(CC(=O)N[C@H]3CC[C@@H](N(C)C)CC3)CC2)c1` [Example 75], 41 nM.
Consider `COCc1ccc(-c2cnnc(N3CCN(CC(=O)N[C@H]4CC[C@@H](N(C)C)CC4)CC3)c2)cc1` [Example 76], for which the IC50 worked out at 103 nM.
Next, `Cc1ccccc1-c1cnnc(N2CCN(CC(=O)N[C@H]3CC[C@@H](N(C)C)CC3)CC2)c1` [Example 77]: 22 nM; `O=C(CN1CCN(c2cc(-c3ccc(F)cc3)cnn2)CC1)NC1CCN(CCO)CC1` [Example 78]: 28 nM.
`CN(C)[C@H]1CC[C@H](NC(=O)CN2CCN(c3cc(-c4ccc(F)cc4)cnn3)CC2)CC1` [Example 79] registered a concentration for half-maximal inhibition (IC50) of 21 nM.
Turning to `CN(C)[C@H]1CC[C@H](NC(=O)CN2CCN(c3cc(-c4ccc(Cl)cc4)cnn3)CC2)CC1` [Example 80], the IC50 was found to be 17 nM.
`CC1CC=C(c2cnnc(N3CCN(CC(=O)NC(C)C)CC3)c2)CC1` (stereo not drawn) [Example 81] gave a concentration for half-maximal inhibition (IC50) of 9.1 nM.
The compound `CC(C)NC(=O)CN1CCN(c2cc(-c3ccc4c(c3)CCO4)cnn2)CC1` [Example 82] returned an IC50 of 14 nM.
On to `CC(C)NC(=O)CN1CCN(c2cc(-c3ccc(C#N)nc3)cnn2)CC1` [Example 83], for which half-maximal inhibition (IC50) required 102 nM.
Next, `CC1CCC(c2cnnc(N3CCN(CC(=O)NC(C)C)CC3)c2)CC1` (stereo not drawn) [Example 84]: 32 nM.
Next, `CC(C)NC(=O)CN1CCN(c2cc(-c3ccc(F)cc3)cnn2)CC1` [Example 85]: 7 nM; `CC(C)NC(=O)CN1CCN(c2cc(-c3ccc4ccccc4c3)cnn2)CC1` [Example 86]: 8.4 nM; `CC(C)NC(=O)CN1CCN(c2cc(-c3ccc(C(F)(F)F)cc3)cnn2)CC1` [Example 87]: 18 nM.
For `CC(C)(C)OC(=O)N1CC[C@@H](NC(=O)CN2CCN(c3cc(-c4ccc(F)cc4)cnn3)CC2)[C@H](F)C1` [Example 88], it took 7.8 nM to reach half-maximal inhibition (IC50).
For `Cc1c(-c2ccc(F)cc2)cnnc1N1CCN(CC(=O)NC(C)C)CC1` [Example 92] the value was 83 nM.

Broadly, the IC50 is the point on the concentration scale where inhibition reaches its midpoint.
